Our source for the melting point values is a melting point compilation (Tetko et al.).

Compound `Nc1cccc(-c2ccncc2)c1` displayed a melting point of 167 to 168 °C. The value for `CC(=O)Oc1ccc2c(C)cc(=O)oc2c1` was 152 to 156 °C; that for `COc1cc(C(c2ccc(C)s2)c2ccc(C)s2)c([N+](=O)[O-])cc1OC` was 120 °C; that for `CCCCCCCCCCCCC(Br)C(=O)O` (configuration not stated) was 42 °C. Under `CCOC(=O)C(C)C(=O)CC(O)CC1CC=C(C)C1(C)C` (configuration not stated) stands 132 °C; under `C=CCOC(=O)CC(C)=O`, -85 °C. The value for `COP(=S)(OC)Oc1ccc(S(=O)(=O)N(C)C)cc1` was 53 °C.

In the case of `Oc1ccc(C#Cc2ccc(F)cc2)cc1`, the melting point is 149 °C. Under `Cc1ccc(S(=O)(=O)N2CCCN(S(=O)(=O)c3ccc(C)cc3)CCN(S(=O)(=O)c3ccc(C)cc3)CCC2)cc1` stands 238 °C; under `O=C(O)C1(c2ccc(F)cc2)CCCC1`, 160 to 165 °C.

Regarding `O=C(O)Cc1ccc(CO)cc1`, the melting point worked out at 133 °C. Under `N#Cc1ccc(CN2CCCCC2)cc1` stands 38 to 40 °C; under `c1cc(NNc2cccc(-n3cccn3)c2)cc(-n2cccn2)c1`, 169 to 171 °C.

As to `NC(=O)C(F)(F)C(F)(F)C(F)(F)C(F)(F)C(F)(F)C(F)(F)F`, the melting point was determined as 136 °C. Under `O=C(O)c1cc(F)cc(C(F)(F)F)c1` stands 104 to 108 °C; under `Nc1c(F)cc(F)cc1Cl`, 30 °C. In the case of `COc1c(C(=O)Cl)csc1Cl`, the melting point fell in the range of 66 to 68 °C.

In turn, `CC(C(=O)O)P(=O)(O)O` (configuration not stated) had a melting point of 120 °C.

In the case of `CC(=O)Oc1nn(-c2ccc(Br)cc2)cc1Br`, the melting point stood at 77 °C. The value for `O=S(=O)(CCl)c1ccccc1` was 54 °C. Under `CC1(C2CCC3C4CCC5CC(O)CCC5(C)C4CCC32C)OCCO1` (configuration not stated) stands 174 °C; under `COc1ccc2ccccc2c1Br`, 80 °C.

For the compound `COc1cc(O)cc(O)c1`, the melting point was 80.3 °C.

`O=[N+]([O-])c1cc(C(F)(F)F)ccc1N1CCOCC1` displayed a melting point of 34 to 36 °C.

`CC12CCC(/C(=N/O)C/C1=N\O)C2(C)C` (configuration not stated) showed a melting point of 209 °C. The value for `Cc1ncsc1C` was 83.5 °C. The value for `Nc1ccc(-n2cnc(Cl)c2Cl)cc1` was 104 to 105 °C. The value for `O=C(Nc1ccc([N+](=O)[O-])cc1[N+](=O)[O-])C(C(F)(F)F)C(F)(F)F` was 120 to 122 °C; that for `Nc1c(I)cc([N+](=O)[O-])cc1I` was 251 to 256 °C. Regarding `NC(c1cccc2ccccc12)C(N)c1cccc2ccccc12` (configuration not stated), the melting point was in the range of 174 to 177 °C.

On to `c1ccc2c(c1)ccc1c2ccc2c3ccccc3ccc21`, for which the melting point was 368 °C. Under `CC(C=CC=C(C)C(=O)O)=CC=CC=C(C)C=CC=C(C)C(=O)O` stands 286 °C; under `Cc1nc(Br)sc1C(=O)O`, 149 to 150 °C. Under `Nc1cc(C(Cl)=C(Cl)Cl)c(S(N)(=O)=O)cc1S(N)(=O)=O` stands 203 °C; under `O=C1C=CC(=O)N1c1ccc(Nc2ccccc2)c2ccccc12`, 207 °C. The value for `Nc1ccc(C(=O)O)nc1` was 218 °C. The compound `ClCc1ccc2c(c1)OCO2` came in with a melting point of 20.5 °C. `Cc1cnc(CO)c(C)c1[N+](=O)[O-]` displayed a melting point of 67 °C.

Turning to `CC(=O)N(c1ccccc1)c1ccccc1`, the melting point was 103 °C. The value for `CCCCCCCCCCCCCCC(C)CC` (configuration not stated) was -6 °C; that for `Nc1ccc(S(=O)(=O)Nc2ccc(Cl)nn2)cc1` was 187 °C; that for `CCOC(=O)C(C#N)=Cc1ccc(-c2ccccc2OC)o1` was 120 to 121 °C.

Take `N#Cc1cc([N+](=O)[O-])ccc1-n1cccc1`: the melting point was 96 to 98 °C. The value for `NNc1ccccc1C(F)(F)F` was 60 °C. Under `CCC(C)(C)C(C)(C)O` stands -1 °C; under `CC1=C(C)C(=O)C(C(CCCCCC(=O)O)c2ccccc2)=C(C)C1=O` (configuration not stated), 128 °C; under `O=C(Nc1ccccc1)c1cccc(S(=O)(=O)Nc2ccccc2)c1`, 212 to 215 °C. On to `O=S(=O)(Cl)c1ccc(-c2cnco2)cc1`, for which the melting point is 101 °C. Take `CC(C)(C)OC(=O)n1cccc1C=O`: the melting point was 51 °C.

`Brc1cncc(Br)c1` had a melting point of 112 °C. The value for `NC(=O)N1C(=O)C=CC1=O` was 159 °C; that for `O=C(O)CC(O)(c1ccccc1)c1ccccc1` was 210 °C. `O=C(O)c1csc(-c2ccc3c(c2)CCO3)n1` came in with a melting point of 210 to 214 °C.

Turning to `CC=C(OC)C(=O)O`, the melting point was determined as 58 °C. As to `N#CC(O)c1ccccc1` (configuration not stated), the melting point was -10 °C. Under `CC(Cc1ccc(O)c(O)c1)(NN)C(=O)O` (configuration not stated) stands 208 °C; under `OC1CSC(O)CS1` (configuration not stated), 108 to 145 °C; under `CC(C)(C)C1=CC(=NO)C=C(C(C)(C)C)C1=O`, 219 °C. The value for `COC(=O)CCCCCCC(=O)O` was 17 to 19 °C. In the case of `Cc1ccc(C(c2ccc(C)o2)c2ccccc2[N+](=O)[O-])o1`, the melting point was 80 °C.

Regarding `N[C@@H](Cc1cc(I)c(O)c(I)c1)C(=O)O`, the melting point was 213 °C.

`C/C=C/C(=O)OC` came in with a melting point of -42 °C. The value for `O=C=Nc1cccc(-c2ncccn2)c1` was 45 to 47 °C; that for `COc1ccccc1Cl` was -26.8 °C; that for `OCC1OC(OCC2OC(O)C(O)C(O)C2O)C(O)C(O)C1O` (configuration not stated) was 86 °C. The compound `O=C1CCC2(c3ccccc3)OCC(c3ccccc3)N12` (configuration not stated) returned a melting point of 78 °C. With `O=C(O)COc1nn(Cc2ccccc2)c2ccccc12`, the melting point amounted to 160 °C. Under `O=C(O)c1ccncc1` stands 315 °C; under `COc1ccc2[nH]cc(CC(=O)O)c2c1`, 148 to 150 °C; under `FC(F)(F)c1cc(N=C=S)ccc1Cl`, 34 to 36 °C.

`Cc1nc2ccccc2n1CC(=O)O`: the melting point was 260 to 262 °C. The value for `Oc1c(F)cc(F)cc1F` was 49.5 °C; that for `C=C(CC(=O)O)C(=O)O` was 175 °C; that for `COc1ccc(C(=O)O)cc1Br` was 220 °C. Under `O=C1CCCCCCC1` stands 40.5 °C.

`C#CC(O)(c1ccccc1)c1ccccc1`: the melting point fell in the range of 47 to 48 °C. Compound `CCC1=C(C=NNc2ccc([N+](=O)[O-])cc2[N+](=O)[O-])CCCC1` gave a melting point of 192 to 194 °C. Under `CN(C)c1ccc(C(O)c2ccc(N(C)C)cc2)cc1` stands 101 °C.

In turn, `COCc1nnc(S)s1` gave a melting point of 77 to 79 °C. The value for `O=C(O)c1c2c(nc3ccc(F)cc13)CCCCC2` was 289 to 291 °C; that for `CC(=O)Nc1ccc([N+](=O)[O-])c(C(F)(F)F)c1` was 108 to 109 °C; that for `Cc1cccc(C)c1C(=O)O` was 116 °C. Under `CN(C)CCCN1c2ccccc2Sc2ccccc21` stands 33 °C.

`ON=Cc1ccc(Br)cc1` registered a melting point of 118 °C. Under `Cc1cc(C)c(CC(=O)c2cc3cc(Br)ccc3o2)c(C)c1` stands 123 to 124 °C.

The compound `N#Cc1cnc2ccccc2c1` came in with a melting point of 109 °C. The value for `COC(=O)[C@@H](CC(=O)O)C1CCCCC1` was 47.9 °C.

The compound `C=CCN=C=S` registered a melting point of -80 °C. Under `CCC(=O)C(=O)CC` stands -10 °C; under `Clc1cc(-c2ccccn2)nc(-c2ccccn2)c1`, 150 °C.

Take `CCCCCCCCCCNCCCCCCCCCC`: the melting point was 40 °C. Under `COP(=O)(OC)OC` stands -46 °C.

Turning to `Cc1cc(N=Nc2ccc(N=Nc3ccccc3)cc2)ccc1N=Nc1ccc(N=Nc2ccccc2)cc1`, the melting point was 209 °C.

Regarding `COc1cc(CC(=O)O)cc(OC)c1OC`, the melting point was 120 °C. `CCOC(=O)c1cc2cc(F)ccc2[nH]1` displayed a melting point of 150 °C. The value for `O=C1O[C@H](C(Cl)(Cl)Cl)N2CCC[C@@H]12` (relative stereo) was 110 °C; that for `CC(=O)Nc1ccc(C#N)c(C(F)(F)F)c1` was 170 to 173 °C; that for `CC(=O)CCc1ccc(CCC(C)=O)cc1` was 55 to 56 °C. Under `O=C(Nc1ccc(F)cc1F)c1cccnc1Oc1cccc(C(F)(F)F)c1` stands 160 °C; under `O=C(O)c1ccc(-c2ccccc2F)cc1`, 234 to 236 °C; under `CCC1CC2CC3c4[nH]c5cc(OC)ccc5c4CCN(C2)C13` (configuration not stated), 214 °C. The value for `Nc1cccc(-n2ccccc2=O)c1` was 182 °C; that for `c1ccc2c(c1)c1ccccc1n2CC1CO1` (configuration not stated) was 110 to 112 °C; that for `O=C(O)c1ccc(F)c(Cl)c1` was 135 °C. Turning to `NNC(=O)c1cccc2cc[nH]c12`, the melting point came out at 178 °C.

On to `CCc1c(C)ccc2c1CCC1C2CCC2CC(O)CCC21C` (configuration not stated), for which the melting point amounted to 172 °C. Under `CCC1(C)C=C/C(=N\NS(=O)(=O)c2ccc(C)cc2)CC1` (configuration not stated) stands 159 to 169 °C; under `CCCCCCCCCCCC(C)CC` (configuration not stated), -32 °C. Under `COc1ccc(/C=C(\C(N)=O)c2nc3ccccc3s2)cc1` stands 168 °C.

With `CC(C)(C)N(NC(=O)c1ccccc1)C(=O)c1c(F)cccc1Cl`, the melting point was determined as 210 °C. The value for `CCC(=O)OCN1C(=O)NC(c2ccccc2)(c2ccccc2)C1=O` was 171 °C. As to `Cc1c([N+](=O)[O-])cc(C(=O)N2CCCCCC2)cc1[N+](=O)[O-]`, the melting point was determined as 106 °C.
